Assay [1] deals with Serine/threonine-protein kinase BRSK1 (Homo sapiens, UniProt Q8TDC3). In kind it is functional.
Assay [2] concerns the target Serine/threonine-protein kinase DCLK1 (Homo sapiens, UniProt O15075). In kind it is functional.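 Note: affinity for DCLK1 (listed as DCAMKL1) measured as one member of a kinome-wide kinase profiling panel.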
The target of assay [3] is Dual specificity tyrosine-phosphorylation-regulated kinase 4 (Homo sapiens, UniProt Q9NR20). In kind it is functional.
The target in assay [4] is Vascular endothelial growth factor receptor 2 (Homo sapiens, UniProt P35968). In kind it is functional.
Chain of Vascular endothelial growth factor receptor 2 (P35968 whole entry): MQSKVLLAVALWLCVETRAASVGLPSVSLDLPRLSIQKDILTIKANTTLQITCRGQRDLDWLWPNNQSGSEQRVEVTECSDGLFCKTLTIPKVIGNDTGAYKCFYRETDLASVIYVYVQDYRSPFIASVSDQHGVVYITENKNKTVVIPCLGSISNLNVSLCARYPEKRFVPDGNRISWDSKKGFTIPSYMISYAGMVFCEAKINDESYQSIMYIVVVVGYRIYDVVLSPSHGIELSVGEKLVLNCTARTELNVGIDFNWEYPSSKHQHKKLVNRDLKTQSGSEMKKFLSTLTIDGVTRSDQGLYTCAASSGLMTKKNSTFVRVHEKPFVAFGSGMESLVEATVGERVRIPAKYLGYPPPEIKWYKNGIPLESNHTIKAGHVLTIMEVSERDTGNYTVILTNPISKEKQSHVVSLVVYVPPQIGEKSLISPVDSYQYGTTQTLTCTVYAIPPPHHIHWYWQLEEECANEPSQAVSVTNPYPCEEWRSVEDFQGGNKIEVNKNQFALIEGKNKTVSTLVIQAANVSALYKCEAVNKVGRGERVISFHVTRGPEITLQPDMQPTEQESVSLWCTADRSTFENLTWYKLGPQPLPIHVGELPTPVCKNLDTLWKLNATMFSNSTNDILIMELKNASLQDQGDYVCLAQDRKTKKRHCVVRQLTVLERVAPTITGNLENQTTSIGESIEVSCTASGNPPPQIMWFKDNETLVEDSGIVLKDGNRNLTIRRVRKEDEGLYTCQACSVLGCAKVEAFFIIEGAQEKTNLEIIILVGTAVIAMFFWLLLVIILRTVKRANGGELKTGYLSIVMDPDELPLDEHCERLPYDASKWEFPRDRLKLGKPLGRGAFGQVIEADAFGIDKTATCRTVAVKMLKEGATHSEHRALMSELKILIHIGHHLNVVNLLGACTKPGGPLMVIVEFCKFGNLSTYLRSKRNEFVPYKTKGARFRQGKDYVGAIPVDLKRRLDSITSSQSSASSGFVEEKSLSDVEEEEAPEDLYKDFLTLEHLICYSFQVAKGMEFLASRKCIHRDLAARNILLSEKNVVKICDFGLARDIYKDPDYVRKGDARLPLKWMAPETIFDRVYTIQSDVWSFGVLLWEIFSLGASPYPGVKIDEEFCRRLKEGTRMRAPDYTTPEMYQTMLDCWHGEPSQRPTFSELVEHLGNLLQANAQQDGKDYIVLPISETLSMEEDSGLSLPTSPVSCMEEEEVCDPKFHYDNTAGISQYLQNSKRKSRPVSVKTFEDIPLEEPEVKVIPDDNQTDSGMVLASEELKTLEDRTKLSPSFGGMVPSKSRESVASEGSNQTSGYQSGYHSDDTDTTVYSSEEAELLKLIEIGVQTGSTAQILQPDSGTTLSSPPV
Assay [5] concerns the target Megakaryocyte-associated tyrosine-protein kinase (Homo sapiens, UniProt P42679). In kind it is functional.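 Note: affinity measured as one member of a kinase panel (Navigating the Kinome) against MATK.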
Assay [6] concerns the target Protein kinase C iota type (Homo sapiens, UniProt P41743). In kind it is functional.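 Note: measured within a kinome-wide kinase panel, PRKCI as panel member.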
The target in assay [7] is Casein kinase I isoform gamma-1 (Homo sapiens, UniProt Q9HCP0). In kind it is functional.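 Note: measured as the CSNK1G1 member of a kinome profiling panel.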
Assay [8] addresses Mitogen-activated protein kinase 13 (Homo sapiens, UniProt O15264). In kind it is functional.
For assay [9], the target named is Tyrosine-protein kinase JAK3 (Homo sapiens, UniProt P52333). In kind it is functional.
Chain of Tyrosine-protein kinase JAK3 (P52333 whole entry): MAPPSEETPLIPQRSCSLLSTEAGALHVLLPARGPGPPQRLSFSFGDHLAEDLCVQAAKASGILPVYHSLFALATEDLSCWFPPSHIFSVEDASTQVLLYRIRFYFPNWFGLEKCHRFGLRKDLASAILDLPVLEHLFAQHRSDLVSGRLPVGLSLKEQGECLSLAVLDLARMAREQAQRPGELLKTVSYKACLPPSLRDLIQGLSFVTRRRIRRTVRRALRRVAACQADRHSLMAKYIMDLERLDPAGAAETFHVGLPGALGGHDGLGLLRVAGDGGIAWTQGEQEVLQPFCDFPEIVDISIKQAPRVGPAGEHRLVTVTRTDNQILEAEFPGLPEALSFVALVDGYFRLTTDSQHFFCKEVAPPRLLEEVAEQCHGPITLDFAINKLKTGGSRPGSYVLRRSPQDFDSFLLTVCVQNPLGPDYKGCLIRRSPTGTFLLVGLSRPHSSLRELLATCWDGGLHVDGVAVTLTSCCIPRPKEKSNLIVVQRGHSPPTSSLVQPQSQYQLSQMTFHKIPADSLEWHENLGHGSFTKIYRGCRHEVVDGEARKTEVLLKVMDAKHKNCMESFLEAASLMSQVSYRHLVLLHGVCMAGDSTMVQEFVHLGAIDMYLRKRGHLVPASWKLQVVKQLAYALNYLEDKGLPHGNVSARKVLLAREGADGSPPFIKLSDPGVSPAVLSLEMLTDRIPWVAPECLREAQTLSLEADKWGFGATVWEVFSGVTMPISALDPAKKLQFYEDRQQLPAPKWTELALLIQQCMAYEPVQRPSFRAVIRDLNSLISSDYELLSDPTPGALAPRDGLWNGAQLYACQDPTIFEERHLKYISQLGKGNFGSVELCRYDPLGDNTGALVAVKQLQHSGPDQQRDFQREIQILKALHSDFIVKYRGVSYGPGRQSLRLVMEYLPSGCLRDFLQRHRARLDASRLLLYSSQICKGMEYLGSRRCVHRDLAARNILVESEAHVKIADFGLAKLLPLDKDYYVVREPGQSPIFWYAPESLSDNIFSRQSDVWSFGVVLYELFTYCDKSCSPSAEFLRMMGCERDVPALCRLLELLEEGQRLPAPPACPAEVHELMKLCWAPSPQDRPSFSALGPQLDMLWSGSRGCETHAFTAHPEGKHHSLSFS
In assay [10] the target is cGMP-dependent protein kinase 1 (Homo sapiens, UniProt Q13976). In kind it is functional.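 Note: value from a kinome panel screen with PRKG1 as the panel member.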
For assay [11], the target named is Serine/threonine-protein kinase TAO1 (Homo sapiens, UniProt Q7L7X3). In kind it is functional.
For assay [12], the target named is Testis-specific serine/threonine-protein kinase 2 (Homo sapiens, UniProt Q96PF2). In kind it is functional.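 Note: part of the Navigating the Kinome panel, target entry STK22B.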
Assay [13] has as its target Serine/threonine-protein kinase pim-2 (Homo sapiens, UniProt Q9P1W9). In kind it is functional.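 Note: value comes from a broad kinase panel profiling study in which PIM2 was one of the panel members.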
In assay [14] the target is Serine/threonine-protein kinase 3 (Homo sapiens, UniProt Q13188). In kind it is functional.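 Note: measured as one member of a kinome-wide kinase panel.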
Assay [15] addresses Dual specificity tyrosine-phosphorylation-regulated kinase 3 (Homo sapiens, UniProt O43781). In kind it is functional.
For assay [16], the target named is Proto-oncogene tyrosine-protein kinase ROS (Homo sapiens, UniProt P08922). In kind it is functional.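 Note: ROS1 tested as one member of a kinome-wide kinase panel.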
Assay [17] has as its target Mitogen-activated protein kinase 12 (Homo sapiens, UniProt P53778). In kind it is functional.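 Note: measured as one member of a kinome-wide kinase profiling panel.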
The target in assay [18] is Insulin-like growth factor 1 receptor (Homo sapiens, UniProt P08069). As to the kind of experiment: Navigating the Kinome. Panel member name: IGF1R. In kind it is functional.
Another assay concerns the target Aurora kinase B (Homo sapiens, UniProt Q96GD4). In kind it is functional.
Assay [19] has as its target Tyrosine-protein kinase receptor TYRO3 (Homo sapiens, UniProt Q06418). In kind it is functional.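 Note: TYRO3 value obtained as one member of a kinome-wide profiling panel.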
Another assay addresses Activin receptor type-1 (Homo sapiens, UniProt Q04771). As to the kind of experiment: Navigating the Kinome. Panel member name: ACVR1. In kind it is functional.
The target of assay [20] is Tyrosine-protein kinase Lyn (Homo sapiens, UniProt P07948). In kind it is functional.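 Note: lyn as one member of a kinase panel.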
In assay [21] the target is RAC-alpha serine/threonine-protein kinase (Homo sapiens, UniProt P31749). In kind it is functional.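 Note: AKT1 affinity measured as one member of a kinome-wide kinase profiling panel.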
Chain of RAC-alpha serine/threonine-protein kinase (P31749 whole entry): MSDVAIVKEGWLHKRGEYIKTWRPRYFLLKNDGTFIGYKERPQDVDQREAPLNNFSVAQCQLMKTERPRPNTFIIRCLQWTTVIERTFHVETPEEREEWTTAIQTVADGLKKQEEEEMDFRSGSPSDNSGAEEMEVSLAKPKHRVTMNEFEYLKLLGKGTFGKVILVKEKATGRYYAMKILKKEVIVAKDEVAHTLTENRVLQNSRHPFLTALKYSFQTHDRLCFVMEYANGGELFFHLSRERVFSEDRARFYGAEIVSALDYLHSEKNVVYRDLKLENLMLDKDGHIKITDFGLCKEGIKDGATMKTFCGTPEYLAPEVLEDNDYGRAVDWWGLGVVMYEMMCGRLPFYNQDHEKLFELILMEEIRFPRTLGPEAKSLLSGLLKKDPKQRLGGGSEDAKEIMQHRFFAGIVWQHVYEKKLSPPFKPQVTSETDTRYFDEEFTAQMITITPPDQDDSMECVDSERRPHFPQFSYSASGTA
Assay [22] has as its target Serine/threonine-protein kinase PLK4 (Homo sapiens, UniProt O00444). In kind it is functional.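 Note: PLK4 measured as one member of a kinome-wide kinase profiling panel.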
Assay [23] deals with Calcium/calmodulin-dependent protein kinase kinase 2 (Homo sapiens, UniProt Q96RR4). The assay can be described thus: Navigating the Kinome. Panel member name: CAMKK2. In kind it is functional.
Assay [24] concerns the target Calcium/calmodulin-dependent protein kinase type II subunit gamma (Homo sapiens, UniProt Q13555). In kind it is functional.
The target in assay [25] is Tyrosine-protein kinase Lck (Homo sapiens, UniProt P06239). In kind it is functional.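 Note: lck was assayed as one member of a kinase panel.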
Assay [26] addresses Fibroblast growth factor receptor 1 (Homo sapiens, UniProt P11362). In kind it is functional.
For assay [27], the target named is Mitogen-activated protein kinase 1 (Homo sapiens, UniProt P28482). In kind it is functional.
Chain of Mitogen-activated protein kinase 1 (P28482 whole entry, canonical isoform): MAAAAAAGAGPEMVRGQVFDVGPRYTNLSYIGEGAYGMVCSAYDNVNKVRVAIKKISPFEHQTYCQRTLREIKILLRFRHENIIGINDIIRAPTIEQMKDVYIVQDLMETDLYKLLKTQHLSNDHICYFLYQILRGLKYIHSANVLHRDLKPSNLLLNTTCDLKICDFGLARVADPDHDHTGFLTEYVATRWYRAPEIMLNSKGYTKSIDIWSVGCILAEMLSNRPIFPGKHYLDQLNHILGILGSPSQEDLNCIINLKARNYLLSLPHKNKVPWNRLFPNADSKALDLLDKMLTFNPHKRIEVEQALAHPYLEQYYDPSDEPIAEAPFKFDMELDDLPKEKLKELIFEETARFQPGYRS
The target of assay [28] is Casein kinase I isoform delta (Homo sapiens, UniProt P48730). In kind it is functional.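 Note: measured as one member (CSNK1D) of a kinome panel.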
Chain of Casein kinase I isoform delta (P48730 whole entry, canonical isoform): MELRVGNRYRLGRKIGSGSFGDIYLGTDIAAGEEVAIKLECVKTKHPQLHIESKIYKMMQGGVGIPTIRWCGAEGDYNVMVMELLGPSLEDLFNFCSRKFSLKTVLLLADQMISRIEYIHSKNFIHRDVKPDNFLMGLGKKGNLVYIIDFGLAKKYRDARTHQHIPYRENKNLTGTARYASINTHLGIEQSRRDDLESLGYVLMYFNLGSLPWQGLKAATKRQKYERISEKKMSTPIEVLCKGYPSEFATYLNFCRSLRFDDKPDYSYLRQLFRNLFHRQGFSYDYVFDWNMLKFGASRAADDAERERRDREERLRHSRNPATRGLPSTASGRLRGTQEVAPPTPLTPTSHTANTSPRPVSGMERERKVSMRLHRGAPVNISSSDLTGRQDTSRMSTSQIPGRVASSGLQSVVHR
Another assay has as its target Ephrin type-A receptor 2 (Homo sapiens, UniProt P29317). In kind it is functional.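 Note: EPHA2 tested as one member of a kinome-wide kinase panel.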
A short description of assay [29]: inhibition of ARNT PAS-B/TACC3 complex formation – biochemical, AlphaScreen, cherry-picked samples, confirmation (AID 651703).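 Note: His-tagged ARNT PAS-B domain paired with GST-TACC3 E629A dimer coactivator fragment; potency of inhibitors that break up the complex and lower AlphaScreen signal.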 In kind it is functional, Homo sapiens. For orientation: Alpha assays give light when donor and acceptor beads are brought close together.
The target of assay [30] is T1, Calpain-2 catalytic subunit (Sus scrofa, UniProt P43367).
T1 sequence (P43367 whole entry): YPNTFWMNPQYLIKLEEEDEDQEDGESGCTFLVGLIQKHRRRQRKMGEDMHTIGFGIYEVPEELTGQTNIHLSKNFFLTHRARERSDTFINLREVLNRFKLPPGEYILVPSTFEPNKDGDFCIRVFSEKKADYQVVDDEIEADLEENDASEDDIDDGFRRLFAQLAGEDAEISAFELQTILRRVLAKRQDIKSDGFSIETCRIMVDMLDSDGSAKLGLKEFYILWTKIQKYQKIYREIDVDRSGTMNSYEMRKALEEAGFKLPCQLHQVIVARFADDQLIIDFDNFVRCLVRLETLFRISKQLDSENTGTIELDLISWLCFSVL
As to the kind of experiment: m-calpain protease blockers, concentration series – biochemical, fluorogenic peptide substrate, dose response (AID 1420). In kind it is functional.

Assay [31] concerns the target Induced myeloid leukemia cell differentiation protein Mcl-1 (Homo sapiens, UniProt Q07820). In kind it is functional.
Assay [32] has as its target T2, Neuropeptide Y receptor type 2 (Homo sapiens, UniProt P49146).
T2 sequence (P49146 whole entry): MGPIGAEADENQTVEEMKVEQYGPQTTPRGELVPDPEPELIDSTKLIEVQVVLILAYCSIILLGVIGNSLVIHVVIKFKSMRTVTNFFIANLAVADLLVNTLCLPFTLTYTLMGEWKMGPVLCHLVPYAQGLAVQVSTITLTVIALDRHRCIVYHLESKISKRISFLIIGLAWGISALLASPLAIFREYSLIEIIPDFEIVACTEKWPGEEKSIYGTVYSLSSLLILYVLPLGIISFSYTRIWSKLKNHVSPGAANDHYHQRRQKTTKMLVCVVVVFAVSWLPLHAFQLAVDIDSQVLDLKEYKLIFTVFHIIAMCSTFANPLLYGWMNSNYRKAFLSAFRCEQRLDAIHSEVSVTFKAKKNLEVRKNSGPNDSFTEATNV
The assay can be described thus: Fluorescence-based counterscreen for agonists of NPY-Y1: cell-based high-throughput dose response assay for agonists of NPY-Y2. In kind it is functional. For orientation: A counterscreen serves to expose hits that act by an unwanted route or on another target.

3 molecules from ChEMBL document CHEMBL1201862, “PubChem BioAssay data set” (2004) can be followed below.

Active and inactive are the calls of the source.

Chain of Induced myeloid leukemia cell differentiation protein Mcl-1 (Q07820 whole entry): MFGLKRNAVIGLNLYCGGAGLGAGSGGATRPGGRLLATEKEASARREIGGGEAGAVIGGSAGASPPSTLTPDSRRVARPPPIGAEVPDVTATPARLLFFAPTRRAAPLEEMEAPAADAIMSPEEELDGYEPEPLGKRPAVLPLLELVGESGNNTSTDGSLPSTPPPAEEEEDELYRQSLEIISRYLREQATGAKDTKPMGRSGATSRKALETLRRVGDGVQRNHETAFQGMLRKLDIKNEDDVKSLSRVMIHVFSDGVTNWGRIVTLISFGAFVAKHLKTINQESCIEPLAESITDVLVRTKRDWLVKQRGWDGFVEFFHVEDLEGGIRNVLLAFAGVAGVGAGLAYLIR
Chain of Aurora kinase B (Q96GD4 whole entry): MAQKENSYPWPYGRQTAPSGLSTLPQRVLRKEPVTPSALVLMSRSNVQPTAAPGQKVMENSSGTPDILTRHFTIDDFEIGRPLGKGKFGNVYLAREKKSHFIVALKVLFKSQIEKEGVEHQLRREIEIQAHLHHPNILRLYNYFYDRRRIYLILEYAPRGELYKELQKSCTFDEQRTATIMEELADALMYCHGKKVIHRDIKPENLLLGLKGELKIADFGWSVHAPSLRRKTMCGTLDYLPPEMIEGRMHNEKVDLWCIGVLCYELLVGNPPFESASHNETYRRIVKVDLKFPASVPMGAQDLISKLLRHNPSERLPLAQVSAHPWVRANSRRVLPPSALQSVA
Chain of Protein kinase C iota type (P41743 whole entry, canonical isoform): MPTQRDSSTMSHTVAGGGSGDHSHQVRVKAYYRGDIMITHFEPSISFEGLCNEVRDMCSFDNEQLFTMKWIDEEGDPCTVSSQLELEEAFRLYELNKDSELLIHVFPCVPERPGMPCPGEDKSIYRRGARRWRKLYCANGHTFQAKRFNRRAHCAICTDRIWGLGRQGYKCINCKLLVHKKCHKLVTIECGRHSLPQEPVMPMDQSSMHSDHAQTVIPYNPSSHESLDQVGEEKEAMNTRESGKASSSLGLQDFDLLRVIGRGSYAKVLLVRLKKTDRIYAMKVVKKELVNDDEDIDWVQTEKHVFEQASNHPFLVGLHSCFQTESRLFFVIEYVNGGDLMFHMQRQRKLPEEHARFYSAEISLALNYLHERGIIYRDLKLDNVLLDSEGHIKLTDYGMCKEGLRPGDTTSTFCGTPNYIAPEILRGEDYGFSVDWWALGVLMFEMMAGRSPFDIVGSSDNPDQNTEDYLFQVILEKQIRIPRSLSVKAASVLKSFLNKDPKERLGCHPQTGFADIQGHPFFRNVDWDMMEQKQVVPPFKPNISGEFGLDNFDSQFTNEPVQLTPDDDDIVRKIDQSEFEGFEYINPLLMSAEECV

A word on the Ki: it is a measure of affinity in units of concentration, obtained from inhibition or displacement. In the case of `OC1CCC(Nc2cc(Cl)nc(-c3c[nH]c4ncccc34)n2)CC1` (stereo not given), the Ki was 1.26 µM (active) in [1]; > 10 µM (inactive) in assay [2]; 1.58 µM (active) in assay [3]; 1.26 µM (active) in assay [4]; 1.58 µM (active) in assay [5]; 398 nM (active) in assay [6]. Further, the inhibition constant Ki is 3.16 µM (active) in assay [7]; 1.26 µM (active) in [8]; 200 nM (active) in [9]; > 1.26 µM (inactive) in assay [10]; 2.51 µM (active) in assay [11]; > 1 µM (inactive) in assay [12]. The Ki is 251 nM (active) in [13]; 50.1 nM (active) in [14]; 50.1 nM (active) in assay [15]; 794 nM (active) in assay [16]; 1.58 µM (active) in assay [17]; > 2 µM (inactive) in assay [18]. In addition, the Ki at Aurora kinase B is 316 nM (active); in assay [19], > 2.51 µM (inactive); at Activin receptor type-1 it was > 3.98 µM (inactive); in [20], > 1 µM (inactive); in [21] it was > 5.01 µM (inactive); in assay [22], > 2.51 µM (inactive). Also, the Ki in assay [23] is > 2.51 µM (inactive); in assay [24], 794 nM (active); in assay [25], > 3.16 µM (inactive); in assay [26], > 2 µM (inactive); in [27] it was > 5.01 µM (inactive); in assay [28] it was 200 nM (active). At Ephrin type-A receptor 2, the Ki is > 3.16 µM (inactive).

A word on the AC50: it is the midpoint of the concentration-response curve, whichever way the signal moves. Regarding `O=C(COC(=O)c1ccc([N+](=O)[O-])s1)NCCc1ccccc1`, the AC50 in assay [29] is 83.7 µM (active).

The term IC50 denotes the midpoint of a concentration-inhibition curve. A word on the EC50: it is the concentration that produces a half-maximal response. A higher EC50 goes with a need for much substance. Regarding `COCC/N=c1\scc(-c2cccs2)n1/N=C/c1ccc(O)c(O)c1O`, the half-inhibitory concentration (IC50) was 38.9 µM (not active) in assay [30] and 5.17 µM (active) in assay [31]. In addition, in assay [32], the EC50 was 19.3 µM (not active).
